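Protocol summary: plate cells (96-well), add compound at 5 concentrations, incubate 48 h, interpolate endpoints linearly. Abbreviation: GI50, concentration required for 50% inhibition of growth. Definition used: TGI = concentration required for complete inhibition of growth.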
Key:
Test in all cases: growth of human tumour cells (NCI), 48 h
UO-31 renal = system: UO-31 renal
SF-295 CNS = system: SF-295 CNS
HOP-62 NSCLC = system: HOP-62 NSCLC
NCI-H522 lung = system: NCI-H522 lung
SK-MEL-28 melanoma = system: SK-MEL-28 melanoma
OVCAR-8 ovarian = system: OVCAR-8 ovarian
T-47D breast = system: T-47D breast
MDA-MB-231 breast = system: MDA-MB-231 breast
SW-620 colon = system: SW-620 colon
UACC-257 melanoma = system: UACC-257 melanoma

Row | Structure (SMILES) | TGI (UO-31 renal) [µM] | TGI (SF-295 CNS) [µM] | TGI (HOP-62 NSCLC) [µM] | TGI (NCI-H522 lung) [µM] | TGI (SK-MEL-28 melanoma) [µM] | TGI (OVCAR-8 ovarian) [µM] | TGI (T-47D breast) [µM] | TGI (MDA-MB-231 breast) [µM] | TGI (SW-620 colon) [µM] | TGI (UACC-257 melanoma) [µM] | GI50 (T-47D breast) [µM] | GI50 (UO-31 renal) [µM] | GI50 (SF-295 CNS) [µM] | GI50 (HOP-62 NSCLC) [µM] | GI50 (MDA-MB-231 breast) [µM] | GI50 (SW-620 colon) [µM] | GI50 (NCI-H522 lung) [µM] | GI50 (SK-MEL-28 melanoma) [µM] | GI50 (UACC-257 melanoma) [µM] | GI50 (OVCAR-8 ovarian) [µM]
1 | N#CCCN(CCC#N)c1ccc(/C=C(\NC(=O)c2cc([N+](=O)[O-])ccc2Cl)C(=O)Nc2ccccc2)cc1 | > 100 | > 100 | > 100 | > 100 | > 100 | > 100 | – | – | – | – | – | – | – | – | – | – | – | – | – | –
2 | O=C(O)c1cc(=O)c2c(OCC(O)COc3cccc4oc(C(=O)O)cc(=O)c34)cccc2o1 | > 100 | > 100 | > 100 | > 75.2 | > 100 | > 100 | > 100 | > 100 | > 100 | > 100 | – | – | – | – | – | – | – | – | – | –
3 | Cc1ccc([N+](=O)[O-])cc1S(=O)(=O)Nc1ccc(C2=NOC(c3cccs3)C2)cc1 (stereo unspecified) | 21.9 | 44.1 | 29.1 | 21.2 | > 100 | 69.9 | 50.5 | > 100 | 48.4 | 49.6 | – | – | – | – | – | – | – | – | – | –
4 | c1ccc(C(NC2=NCCO2)c2ccccc2)cc1 | > 10 | > 10 | > 10 | > 10 | > 10 | > 10 | > 10 | > 10 | > 10 | – | – | – | – | – | – | – | – | – | – | –
5 | CCOC(=O)C(Cc1cn(C(C)=O)c2ccccc12)P(=O)(OCC)OCC (stereo unspecified) | > 100 | > 100 | > 100 | > 100 | > 100 | > 100 | > 100 | > 100 | > 100 | > 100 | – | – | – | – | – | – | – | – | – | –
6 | C/C(=N\NC(=S)N(C)C)c1nc2ncccc2[nH]1 | 1.89 | – | > 100 | 91.7 | > 100 | > 100 | 14.7 | > 100 | > 100 | 64.5 | – | – | – | – | – | – | – | – | – | –
7 | COc1cc2cc(C(=O)Nc3cc4n(n3)-c3ccccc3C4)[nH]c2c(OC)c1OC | 6.8 | 11.6 | 6.43 | 4.13 | 9.66 | 3.78 | 2.39 | 19.3 | 19.1 | 9.26 | – | – | – | – | – | – | – | – | – | –
8 | O=C(Nc1ccc(-n2cc(-c3ccncc3)c(-c3ccc(O)c(Cl)c3)n2)cc1)Nc1ccc(Cl)c(C(F)(F)F)c1 | 16.4 | 14.6 | 27.6 | 13.4 | 15 | 21.3 | 64.1 | 12.5 | 20 | 30.8 | 8.61 | 3.01 | 2.99 | 6.56 | 3.2 | 4.55 | 2.54 | 3.64 | 7.42 | 4.11
9 | CCCn1cc2c(SC)nc(SC)nc2n1 | > 100 | > 100 | – | – | > 100 | > 100 | – | – | > 100 | > 100 | – | – | – | – | – | – | – | – | – | –
10 | O=c1/c(=C/c2ccc([N+](=O)[O-])o2)sc2n1[C@@H](c1ccc(Cl)cc1)C=C(c1cc(F)c(Cl)cc1Cl)N=2 | 32.5 | 72.4 | 30.6 | 49.2 | > 100 | 40.8 | 52.7 | 18.5 | > 100 | 30.6 | – | – | – | – | – | – | – | – | – | –
11 | COc1ccc(-c2cc(-c3ccc(O)cc3O)c(C#N)c(=O)[nH]2)cc1 | 69.6 | 34 | 41.1 | – | 33.5 | 85.2 | > 100 | 36.8 | 50.3 | 70.8 | – | – | – | – | – | – | – | – | – | –
12 | C/C(=N\NC(=S)NCCCCNC(=S)N/N=C(\C)c1ccccn1)c1ccccc1 | 13.1 | > 37.6 | 6 | 30.7 | > 100 | 5.63 | – | > 52.7 | > 100 | 9.64 | – | – | – | – | – | – | – | – | – | –
13 | COc1ccc(C(O)(c2ccccc2)c2nccc3ccccc23)cc1 (stereo unspecified) | > 100 | > 100 | > 100 | 30.7 | > 100 | > 100 | > 100 | > 100 | – | > 100 | – | – | – | – | – | – | – | – | – | –
14 | CCOC(=O)CCSc1nc2ccc(I)cc2c(=O)n1Cc1ccccc1 | 1.42 | > 73.3 | > 75.2 | 52.5 | > 100 | > 100 | > 100 | > 100 | > 100 | > 92.2 | – | – | – | – | – | – | – | – | – | –
15 | COc1cc2c(cc1OCCCOS(C)(=O)=O)N=C[C@@H]1CCCN1C2=O | > 100 | > 100 | – | > 100 | > 100 | > 100 | > 100 | > 100 | > 100 | > 100 | – | – | – | – | – | – | – | – | – | –
16 | Cn1ncc2c(Nc3cccc(Cl)c3)nc(Nc3cccc(Cl)c3)nc21 | 35.4 | 21.1 | 68.6 | 39.1 | 41.2 | > 100 | 37 | > 68.3 | > 58.2 | 25.9 | – | – | – | – | – | – | – | – | – | –
17 | O=C(O)CCc1nc2ccccc2[nH]1 | > 100 | > 100 | > 100 | > 100 | > 100 | > 100 | > 100 | > 100 | > 100 | > 100 | – | – | – | – | – | – | – | – | – | –

From PubChem BioAssay (NCI)
